Data reported in PubChem BioAssay AID256 (DTP/NCI, 2004).
Several values for one entry are separate records, joined by “and”; a condition that tells them apart may be missing. Identical values can stand only once. Inconclusive results and toxic doses are left out. How the source made its calls: active means survival T/C of 150% or more; inactive means T/C below 125% in these data.

Test system: CD2F1 mice, L1210 leukemia ip, survival T/C
Experiment: NCI In Vivo Anticancer Drug Screen. Data for tumor model L1210 Leukemia (intraperitoneal) in CD2F1 (CDF1) mice
Details: higher = longer survival
Method in brief: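 Vehicle-treated tumor-bearing mice served as controls (C) for compound-treated mice (T). Reported figure is T divided by C.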

[1] = endpoint: mean survival time, dose: 100.0 mg/kg/injection, schedule: Q01DX009 (ip), vehicle: saline with Tween-80
[2] = endpoint: mean survival time, dose: 100.0 mg/kg/injection, schedule: Q04DX003 (ip), vehicle: saline with Tween-80
[3] = endpoint: mean survival time, dose: 200.0 mg/kg/injection, schedule: Q01DX009 (ip), vehicle: saline with Tween-80
[4] = endpoint: mean survival time, dose: 200.0 mg/kg/injection, schedule: Q04DX003 (ip), vehicle: saline with Tween-80
[5] = endpoint: mean survival time, dose: 400.0 mg/kg/injection, schedule: Q01DX009 (ip), vehicle: saline with Tween-80
[6] = endpoint: mean survival time, dose: 400.0 mg/kg/injection, schedule: Q04DX003 (ip), vehicle: saline with Tween-80
[7] = endpoint: mean survival time, dose: 100.0 mg/kg/injection, schedule: Q04DX002 (ip), vehicle: saline with Tween-80
[8] = endpoint: mean survival time, dose: 100.0 mg/kg/injection, schedule: Q01DX001 (ip), vehicle: saline with Tween-80
[9] = endpoint: mean survival time, dose: 200.0 mg/kg/injection, schedule: Q01DX001 (ip), vehicle: saline with Tween-80
[10] = endpoint: mean survival time, dose: 400.0 mg/kg/injection, schedule: Q01DX001 (ip), vehicle: saline with Tween-80

Measured: T/C

O=C(CCl)N1CCC(CC2(c3cc4ccccc4[nH]3)OCCO2)CC1
inactive: endpoint: mean survival time, dose: 50.0 mg/kg/injection, schedule: Q04DX002 (ip), vehicle: other 106 % of control | endpoint: mean survival time, dose: 100.0 mg/kg/injection, schedule: Q04DX002 (ip), vehicle: other 109 % of control | endpoint: mean survival time, dose: 200.0 mg/kg/injection, schedule: Q04DX002 (ip), vehicle: other 91 % of control

COc1ccc2c(NCCCCCCNc3c4ccccc4nc4cc(OC)ccc34)c3ccccc3nc2c1
inactive: endpoint: mean survival time, dose: 0.07 mg/kg/injection, schedule: Q01DX009 (ip), vehicle: other 102 % of control | endpoint: mean survival time, dose: 0.15 mg/kg/injection, schedule: Q01DX009 (ip), vehicle: other 102 % of control | endpoint: mean survival time, dose: 0.16 mg/kg/injection, schedule: Q01DX009 (ip), vehicle: lactic acid 124 % of control | endpoint: mean survival time, dose: 0.31 mg/kg/injection, schedule: Q01DX009 (ip), vehicle: lactic acid 110 % of control | endpoint: mean survival time, dose: 0.31 mg/kg/injection, schedule: Q01DX009 (ip), vehicle: other 105 % of control | endpoint: mean survival time, dose: 0.62 mg/kg/injection, schedule: Q01DX009 (ip), vehicle: lactic acid 113 % of control | endpoint: mean survival time, dose: 0.63 mg/kg/injection, schedule: Q01DX009 (ip), vehicle: other 100 % of control | endpoint: mean survival time, dose: 1.25 mg/kg/injection, schedule: Q01DX009 (ip), vehicle: lactic acid 121 % of control and 122 % of control | endpoint: mean survival time, dose: 1.25 mg/kg/injection, schedule: Q01DX009 (ip), vehicle: other 107 % of control | endpoint: mean survival time, dose: 2.5 mg/kg/injection, schedule: Q01DX009 (ip), vehicle: lactic acid 122 % of control | endpoint: mean survival time, dose: 5.0 mg/kg/injection, schedule: Q01DX009 (ip), vehicle: lactic acid 116 % of control | endpoint: mean survival time, dose: 10.0 mg/kg/injection, schedule: Q01DX009 (ip), vehicle: lactic acid 122 % of control

COc1ccc(C2=NNc3n[nH]c(=S)n3N2)cc1OC
inactive: [1] 93 % of control | [2] 91 % of control | [3] 93 % of control | [4] 101 % of control | [5] 104 % of control | [6] 90 % of control

C=C1N(c2ccccc2)C(=O)OC1(C)C
inactive: [7] 112 % of control | endpoint: mean survival time, dose: 200.0 mg/kg/injection, schedule: Q04DX002 (ip), vehicle: saline with Tween-80 112 % of control | endpoint: mean survival time, dose: 400.0 mg/kg/injection, schedule: Q04DX002 (ip), vehicle: saline with Tween-80 122 % of control

CC(=O)Oc1cccc(C(C)=O)c1
inactive: [2] 102 % of control | [4] 100 % of control | [6] 104 % of control

COc1ccc(C(=O)N/N=C(\C)[C@]2(O)Cc3c(O)c4c(c(O)c3[C@@H](OC3CC(N)C(O)C(C)O3)C2)C(=O)c2c(OC)cccc2C4=O)cc1 (some centres not stated)
inactive: endpoint: mean survival time, dose: 0.5 mg/kg/injection, schedule: Q01DX009 (ip), vehicle: water 103 % of control | endpoint: mean survival time, dose: 1.0 mg/kg/injection, schedule: Q01DX009 (ip), vehicle: water 112 % of control | endpoint: mean survival time, dose: 2.0 mg/kg/injection, schedule: Q01DX009 (ip), vehicle: water 118 % of control | endpoint: mean survival time, dose: 4.0 mg/kg/injection, schedule: Q01DX009 (ip), vehicle: water 121 % of control

CS(=O)(=O)Nc1ccc(CC#N)cc1
inactive: [1] 98 % of control | [2] 101 % of control | [3] 101 % of control | [4] 107 % of control | [5] 102 % of control | [6] 109 % of control

O=P(OCc1ccccc1)(N(CCCl)CCCl)N1CCCCC1 (configuration not stated)
inactive: endpoint: mean survival time, dose: 62.5 mg/kg/injection, schedule: Q01DX010 (ip), vehicle: saline 98 % of control | endpoint: mean survival time, dose: 125.0 mg/kg/injection, schedule: Q01DX010 (ip), vehicle: saline 101 % of control | endpoint: mean survival time, dose: 250.0 mg/kg/injection, schedule: Q01DX010 (ip), vehicle: saline 90 % of control

[Cl][Hg][CH2]CN1CCCCC1
inactive: endpoint: mean survival time, dose: 25.0 mg/kg/injection, schedule: Q04DX002 (ip), vehicle: saline with Tween-80 94 % of control | endpoint: mean survival time, dose: 50.0 mg/kg/injection, schedule: Q04DX002 (ip), vehicle: saline with Tween-80 94 % of control | [7] 94 % of control

COc1cc2c(c3c1c(=O)c1cccc(F)c1n3C)C=CC(C)(C)O2
inactive: endpoint: median survival time, dose: 50.0 mg/kg/injection, schedule: Q01DX009 (ip), vehicle: Klucel (hydroxypropylcellulose) (HPC) 118 % of control | endpoint: median survival time, dose: 100.0 mg/kg/injection, schedule: Q01DX009 (ip), vehicle: Klucel (hydroxypropylcellulose) (HPC) 117 % of control | endpoint: median survival time, dose: 200.0 mg/kg/injection, schedule: Q01DX009 (ip), vehicle: Klucel (hydroxypropylcellulose) (HPC) 120 % of control and 90 % of control

CC(=O)N(C(C)=O)c1ccc2[nH]c3c(N(C(C)=O)C(C)=O)cccc3c2c1
inactive: endpoint: mean survival time, dose: 100.0 mg/kg/injection, schedule: Q04DX003 (ip), vehicle: Klucel (hydroxypropylcellulose) (HPC) 97 % of control | endpoint: mean survival time, dose: 200.0 mg/kg/injection, schedule: Q04DX003 (ip), vehicle: Klucel (hydroxypropylcellulose) (HPC) 96 % of control | endpoint: mean survival time, dose: 400.0 mg/kg/injection, schedule: Q04DX003 (ip), vehicle: Klucel (hydroxypropylcellulose) (HPC) 97 % of control

CN(C)CCNCc1cn(C2CC(O)C(CO)O2)c(=O)[nH]c1=O (configuration not stated)
inactive: endpoint: mean survival time, dose: 12.5 mg/kg/injection, schedule: Q01DX005 (ip), vehicle: water 105 % of control | endpoint: mean survival time, dose: 25.0 mg/kg/injection, schedule: Q01DX005 (ip), vehicle: water 103 % of control | endpoint: mean survival time, dose: 50.0 mg/kg/injection, schedule: Q01DX005 (ip), vehicle: water 106 % of control | endpoint: mean survival time, dose: 100.0 mg/kg/injection, schedule: Q01DX005 (ip), vehicle: water 103 % of control | endpoint: mean survival time, dose: 200.0 mg/kg/injection, schedule: Q01DX005 (ip), vehicle: water 114 % of control

O=C(/C=C\c1ccc(NCc2ccc(C(=O)O)cc2)cc1)CCl
inactive: [1] 111 % of control | [4] 91 % of control | [6] 86 % of control

Cc1ccc(C(C#N)Nc2ccccc2)cc1 (configuration not stated)
inactive: [1] 103 % of control | [2] 100 % of control | [3] 88 % of control | [4] 91 % of control | [5] 93 % of control | [6] 97 % of control

CN1CC(=O)n2c(cc3ccccc32)C1=O
inactive: endpoint: mean survival time, dose: 50.0 mg/kg/injection, schedule: Q04DX002 (ip), vehicle: saline 101 % of control | endpoint: mean survival time, dose: 100.0 mg/kg/injection, schedule: Q04DX002 (ip), vehicle: saline 86 % of control | endpoint: mean survival time, dose: 200.0 mg/kg/injection, schedule: Q04DX002 (ip), vehicle: saline 93 % of control | endpoint: mean survival time, dose: 400.0 mg/kg/injection, schedule: Q04DX002 (ip), vehicle: saline 101 % of control

Cc1ccc(S(=O)(=O)/C=C(\Cl)S(=O)(=O)C(C)(C)C)cc1
inactive: endpoint: mean survival time, dose: 25.0 mg/kg/injection, schedule: Q01DX001 (ip), vehicle: saline with Tween-80 93 % of control | endpoint: mean survival time, dose: 50.0 mg/kg/injection, schedule: Q01DX001 (ip), vehicle: saline with Tween-80 104 % of control

N#CC(c1ccccc1)N(c1ccc(NS(=O)(=O)c2ccccc2)cc1)S(=O)(=O)c1ccccc1 (configuration not stated)
inactive: [8] 93 % of control | [9] 96 % of control | [10] 89 % of control

CCCCNC1=CC(=O)c2ccccc2C1=O
inactive: [8] 103 % of control | [9] 95 % of control | [10] 92 % of control

O=S(=O)(NCCNS(=O)(=O)c1ccccc1)c1ccccc1
inactive: [8] 110 % of control | [9] 95 % of control | [10] 100 % of control

CC(=O)c1ccc2c(c1)-c1ccc(C(C)=O)cc1-2
inactive: [2] 86 % of control | [4] 86 % of control | [6] 90 % of control

Cc1cccnc1NC1=NCCO1
inactive: [2] 101 % of control | [4] 98 % of control | [6] 98 % of control

CCCCCCCCCCCCCCCCOc1ccc(S(=O)(=O)NC2CCCCC2)cc1N
inactive: [2] 104 % of control | [4] 94 % of control | [6] 96 % of control
